Laboratory results published in patent US20200055817A1 (AbbVie Deutschland GmbH & Co. KG, priority 2016, published 2020).

Experiments:
Format in all cases: cell-based
[1] = biological target: T1, human EDG8 (S1PR5) receptor (Homo sapiens, UniProt Q9H228); assay: Aequorin assay, agonist potency, CHO-A21-EDG8#12 cells; conditions: agonist mode, aequorin luminescence; read-out: S1P5 EC50 range #
T1 construct: carries the transgenes human EDG8 (S1PR5) receptor (Acession number NP_110387.1); expressed in transfected cells; host or cells: CHO-A21-EDG8#12 (CHO clone co-expressing mitochondrial aequorin and chimaeric Gaqi5)
Outline: (§1)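 CHO cells coexpressing receptor, mitochondrial aequorin and Gαqi5 (S1P3 pool: GNA16) were loaded overnight at RT with 5 μM coelenterazine h in 0.1% fatty-acid-free BSA buffer. Cells were injected onto compound, luminescence recorded 90 s and integrated, normalised to digitonin or 20 μM ATP; sigmoidal fit.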

S1P4 = biological target: T2, S1P4 (Homo sapiens, UniProt O95977); assay: Aequorin assay, agonist potency, S1P4; conditions: agonist mode, aequorin luminescence
T2 sequence (O95977 1-384): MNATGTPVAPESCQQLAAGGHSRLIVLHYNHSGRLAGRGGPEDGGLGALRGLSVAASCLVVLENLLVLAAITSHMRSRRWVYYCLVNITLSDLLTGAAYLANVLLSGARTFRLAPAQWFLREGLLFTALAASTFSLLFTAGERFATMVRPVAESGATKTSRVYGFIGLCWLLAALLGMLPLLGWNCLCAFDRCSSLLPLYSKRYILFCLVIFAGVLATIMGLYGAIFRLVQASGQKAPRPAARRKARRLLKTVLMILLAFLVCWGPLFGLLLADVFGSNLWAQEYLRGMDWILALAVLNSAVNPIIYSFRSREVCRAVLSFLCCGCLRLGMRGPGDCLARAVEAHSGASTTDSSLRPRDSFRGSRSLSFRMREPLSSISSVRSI
Outline: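 Cells loaded overnight at RT with 5 μM coelenterazine h in DMEM/HAM's F12 with HEPES plus 0.1% fatty acid-free BSA, then injected onto compounds; agonist-induced calcium luminescence recorded for 90 s and integrated. Signal normalised to digitonin (100 μM) or ATP (20 μM) wells, S1P as reference agonist; sigmoidal nonlinear regression.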

[2] = biological target: T3, human EDG1 (S1PR1) receptor (Homo sapiens, UniProt P21453); assay: Aequorin assay, agonist potency, CHO-A21-Edg1#17 cells; conditions: agonist mode, aequorin luminescence; read-out: S1P1 EC50
T3 construct: expressed in transfected cells; host or cells: CHO-A21-Edg1#17 (CHO clone co-expressing mitochondrial aequorin and chimaeric Gaqi5)
Outline: as §1

T1 sequence (Q9H228 whole entry): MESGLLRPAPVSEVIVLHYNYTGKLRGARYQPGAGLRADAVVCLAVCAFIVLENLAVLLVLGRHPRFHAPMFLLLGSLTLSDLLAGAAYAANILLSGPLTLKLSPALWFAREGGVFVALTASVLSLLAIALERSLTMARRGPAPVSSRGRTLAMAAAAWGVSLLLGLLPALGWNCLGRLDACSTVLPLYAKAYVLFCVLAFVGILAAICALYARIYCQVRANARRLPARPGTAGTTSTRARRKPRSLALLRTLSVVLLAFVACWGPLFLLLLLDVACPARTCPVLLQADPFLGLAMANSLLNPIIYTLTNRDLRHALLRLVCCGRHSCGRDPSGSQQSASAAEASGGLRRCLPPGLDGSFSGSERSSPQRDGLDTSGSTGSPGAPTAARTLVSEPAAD
T3 sequence (P21453 whole entry): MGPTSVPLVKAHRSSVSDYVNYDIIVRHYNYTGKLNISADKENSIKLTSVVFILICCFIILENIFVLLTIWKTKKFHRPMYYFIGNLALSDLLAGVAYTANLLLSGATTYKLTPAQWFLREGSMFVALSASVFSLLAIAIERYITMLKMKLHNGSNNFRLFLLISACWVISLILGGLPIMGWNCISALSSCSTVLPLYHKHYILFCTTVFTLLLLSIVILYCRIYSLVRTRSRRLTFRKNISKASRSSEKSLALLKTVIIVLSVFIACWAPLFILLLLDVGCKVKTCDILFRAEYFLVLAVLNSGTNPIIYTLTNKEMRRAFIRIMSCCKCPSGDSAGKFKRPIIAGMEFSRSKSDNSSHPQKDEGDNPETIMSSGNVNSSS

| Compound | EC50 [1] [nM] | EC50 (S1P4) [nM] | EC50 [2] [nM] |
| --- | --- | --- | --- |
| O=C(O)C1CC(N2CC3(Cc4ccc(OCc5ccc(OCC6CC6)cc5)cc4C3)C2)C1 (stereo not drawn) [Example 84, 3-(5′-((4-(cyclopropylmethoxy)benzyl)oxy)-1′,3′-dihydrospiro[azetidine-3,2′-inden]-1-yl)cyclobutanecarboxylic acid] | 1000 to 10000 | > 1000 | > 1000 |
| COc1cccc(F)c1COc1ccc2c(c1)CC1(C2)CN(CC(=O)O)C1 [Example 10, 2,2,2-trifluoroacetic acid compound with 2-(5′-((2-fluoro-6-methoxybenzyl)oxy)-1′,3′-dihydrospiro[azetidine-3,2′-inden]-1-yl)acetic acid (1:1)] | 100 to 1000 | < 1000 | > 1000 |
| O=C(O)C1(CN2CC3(Cc4ccc(OCCOc5ccccc5Cl)cc4C3)C2)CC1 [Example 145, 1-((5′-(2-(2-chlorophenoxy)ethoxy)-1′,3′-dihydrospiro[azetidine-3,2′-inden]-1-yl)methyl)cyclopropanecarboxylic acid] | 1000 to 10000 | < 1000 | > 1000 |
| O=C(O)CN1CC2(Cc3ccc(C#Cc4ccc(Cl)cc4)cc3O2)C1 [Example 149, 2-(6′-((4-chlorophenyl)ethynyl)-3′H-spiro[azetidine-3,2′-benzofuran]-1-yl)acetic acid] | 1000 to 10000 | > 1000 | > 1000 |
| Cc1ccccc1CCOc1ccc2c(c1)CC1(C2)CN(CC2(C(=O)O)CC2)C1 [Example 134, 1-((5′-(2-methylphenethoxy)-1′,3′-dihydrospiro[azetidine-3,2′-inden]-1-yl)methyl)cyclopropanecarboxylic acid] | 1000 to 10000 | < 1000 | > 1000 |
| CCOc1ccc(COc2ccc3c(c2)CC2(C3)CN(CC3(C(=O)O)CC3)C2)cc1 [Example 35, 1-((5′-((4-ethoxybenzyl)oxy)-1′,3′-dihydrospiro[azetidine-3,2′-inden]-1-yl)methyl)cyclopropanecarboxylic acid] | 1000 to 10000 | < 1000 | > 1000 |
| COc1ccc(CCOc2ccc3c(c2)CC2(C3)CN(CC3(C(=O)O)CC3)C2)cc1 [Example 135, 1-((5′-(4-methoxyphenethoxy)-1′,3′-dihydrospiro[azetidine-3,2′-inden]-1-yl)methyl)cyclopropanecarboxylic acid] | 1000 to 10000 | > 1000 | > 1000 |
| CCc1cccc(F)c1COc1ccc2c(c1)CC1(C2)CN(CC2(C(=O)O)CC2)C1 [Example 48, 1-((5′-((2-ethyl-6-fluorobenzyl)oxy)-1′,3′-dihydrospiro[azetidine-3,2′-inden]-1-yl)methyl)cyclopropanecarboxylic acid] | ≤ 10 | < 1000 | > 1000 |
| COc1ccc(COc2ccc3c(c2)CC2(C3)CN(CC3(C(=O)O)CC3)C2)c(Cl)c1 [Example 40, 1-((5′-((2-chloro-4-methoxybenzyl)oxy)-1′,3′-dihydrospiro[azetidine-3,2′-inden]-1-yl)methyl)cyclopropanecarboxylic acid] | 1000 to 10000 | < 1000 | > 1000 |
| CC(C)Oc1ccc(C#Cc2ccc3c(c2)CC2(C3)CN(CC3(C(=O)O)CC3)C2)cc1 [Example 113, 1-((5′-((4-isopropoxyphenyl)ethynyl)-1′,3′-dihydrospiro[azetidine-3,2′-inden]-1-yl)methyl)cyclopropanecarboxylic acid] | ≤ 10 | > 1000 | < 1000 |
| O=C(O)CN1CC2(Cc3ccc(OCc4ccccc4C(F)(F)F)cc3C2)C1 [Example 12, 2,2,2-trifluoroacetic acid compound with 2-(5′-((2-(trifluoromethyl)benzyl)oxy)-1′,3′-dihydrospiro[azetidine-3,2′-inden]-1-yl)acetic acid (1:1)] | 10 to 100 | < 1000 | > 1000 |
| O=C(O)C1(CN2CC3(Cc4ccc(OCc5ccc6c(c5)OCO6)cc4C3)C2)CC1 [Example 143, 1-((5′-(benzo[d][1,3]dioxol-5-ylmethoxy)-1′,3′-dihydrospiro[azetidine-3,2′-inden]-1-yl)methyl)cyclopropanecarboxylic acid] | 1000 to 10000 | < 1000 | > 1000 |
| Cc1cccc(F)c1COc1ccc2c(c1)CC1(C2)CN(CC2(C(=O)O)CC2)C1 [Example 42, 1-((5′-((2-fluoro-6-methylbenzyl)oxy)-1′,3′-dihydrospiro[azetidine-3,2′-inden]-1-yl)methyl)cyclopropanecarboxylic acid compound with 2,2,2-trifluoroacetic acid (1:1)] | 100 to 1000 | < 1000 | > 1000 |
| CCc1cccc(F)c1COc1ccc2c(c1)CC1(C2)CN(CC(C)CC(=O)O)C1 (stereo not drawn) [Example 65, 4-(5′-((2-ethyl-6-fluorobenzyl)oxy)-1′,3′-dihydrospiro[azetidine-3,2′-inden]-1-yl)-3-methylbutanoic acid] | 10 to 100 | < 1000 | > 1000 |
| O=C(O)C1(CN2CC3(Cc4ccc(OC5Cc6ccccc6C5)cc4C3)C2)CC1 [Example 127, 1-((5′-((2,3-dihydro-1H-inden-2-yl)oxy)-1′,3′-dihydrospiro[azetidine-3,2′-inden]-1-yl)methyl)cyclopropanecarboxylic acid] | 1000 to 10000 | < 1000 | > 1000 |
| O=C(O)C1(CN2CC3(Cc4ccc(OCCc5ccccc5Cl)cc4C3)C2)CC1 [Example 58, 1-((5′-(2-chlorophenethoxy)-1′,3′-dihydrospiro[azetidine-3,2′-inden]-1-yl)methyl)cyclopropanecarboxylic acid] | 100 to 1000 | < 1000 | > 1000 |
| O=C(O)C1(CN2CC3(Cc4ccc(OCc5cc(Cl)ccc5Cl)cc4C3)C2)CC1 [Example 36, 1-((5′-((2,5-dichlorobenzyl)oxy)-1′,3′-dihydrospiro[azetidine-3,2′-inden]-1-yl)methyl)cyclopropanecarboxylic acid compound with acetic acid (1:1)] | 1000 to 10000 | < 1000 | > 1000 |
| O=C(O)C1CC(N2CC3(Cc4ccc(C#Cc5ccc(OC6CCCC6)nc5)cc4C3)C2)C1 (stereo not drawn) [Example 95, 3-(5′-((6-(cyclopentyloxy)pyridin-3-yl)ethynyl)-1′,3′-dihydrospiro[azetidine-3,2′-inden]-1-yl)cyclobutanecarboxylic acid] | ≤ 10 | < 1000 | < 1000 |
| CCOc1ccc(COc2ccc3c(c2)CC2(C3)CN(CC3(C(=O)O)CC3)C2)c(Cl)c1 [Example 32, 1-((5′-((2-chloro-4-ethoxybenzyl)oxy)-1′,3′-dihydrospiro[azetidine-3,2′-inden]-1-yl)methyl)cyclopropanecarboxylic acid] | 1000 to 10000 | < 1000 | > 1000 |
| O=C(O)C1CC(N2CC3(Cc4ccc(OC5CCc6cccc(Cl)c65)cc4C3)C2)C1 (stereo not drawn) [Example 106, 3-(5′-((7-chloro-2,3-dihydro-1H-inden-1-yl)oxy)-1′,3′-dihydrospiro[azetidine-3,2′-inden]-1-yl)cyclobutanecarboxylic acid] | ≤ 10 | < 1000 | < 1000 |
| CCCc1ccc(COc2ccc3c(c2)CC2(C3)CN(CC3(C(=O)O)CC3)C2)c(OC)c1 [Example 2, 1-((5′-((2-methoxy-4-propylbenzyl)oxy)-1′,3′-dihydrospiro[azetidine-3,2′-inden]-1-yl)methyl)cyclopropanecarboxylic acid] | 1000 to 10000 | < 1000 | > 1000 |
| O=C(O)C1(CN2CC3(Cc4ccc(OCCc5ccc(F)cc5)cc4C3)C2)CC1 [Example 137, 1-((5′-(4-fluorophenethoxy)-1′,3′-dihydrospiro[azetidine-3,2′-inden]-1-yl)methyl)cyclopropanecarboxylic acid] | 1000 to 10000 | < 1000 | > 1000 |
| O=C(O)CN1CC2(Cc3ccc(C#Cc4ccccc4Cl)cc3C2)C1 [Example 80, 2-(5′-((2-chlorophenyl)ethynyl)-1′,3′-dihydrospiro[azetidine-3,2′-inden]-1-yl)acetic acid] | ≤ 10 | < 1000 | > 1000 |
| O=C(O)CN1CC2(Cc3ccc(OCCOc4ccc(Cl)cc4)cc3C2)C1 [Example 71, 2-(5′-(2-(4-chlorophenoxy)ethoxy)-1′,3′-dihydrospiro[azetidine-3,2′-inden]-1-yl)acetic acid] | 1000 to 10000 | > 1000 | > 1000 |
